Data set [1] in a line: Particle size of pulverized adapalene raw material, laser particle size analyzer, dry detection. In kind it is physicochemical. The note with it: raw material after jet-mill pulverization, dry method detection (Example 3). An excerpt: Method: Taking the appropriate amount of this product, using Malvern MS3000 laser particle size analyzer, dry detection, D50 should not greater than 10 μm, D90 should not greater than 30 um.
After pulverization the raw materials of adapalene was subjected to dry method detection and D50 was found not more than 10 um, D90 was found not more than 30 um. Adapalene was pulverized using a jet mill to achieve the target particle size.

For data set [2] the following is noted: cited from earlier work.
The next data set concerns the target T1, RARPβ (Homo sapiens, UniProt P10826).
T1 sequence (P10826 1-455): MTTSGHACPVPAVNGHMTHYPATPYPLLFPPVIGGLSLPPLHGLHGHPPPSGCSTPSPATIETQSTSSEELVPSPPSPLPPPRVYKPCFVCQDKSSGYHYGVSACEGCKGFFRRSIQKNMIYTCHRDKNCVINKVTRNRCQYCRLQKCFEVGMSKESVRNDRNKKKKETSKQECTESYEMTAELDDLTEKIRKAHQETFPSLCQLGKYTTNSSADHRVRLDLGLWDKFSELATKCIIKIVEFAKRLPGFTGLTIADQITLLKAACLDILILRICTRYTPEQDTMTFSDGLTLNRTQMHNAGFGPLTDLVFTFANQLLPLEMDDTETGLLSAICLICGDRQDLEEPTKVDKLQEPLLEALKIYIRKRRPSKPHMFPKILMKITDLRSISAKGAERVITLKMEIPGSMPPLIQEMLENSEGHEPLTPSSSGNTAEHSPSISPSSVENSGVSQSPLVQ
The note with it: cited from earlier work.

For the next data set, the target named is T2, RARγ (Homo sapiens, UniProt P13631).
T2 sequence (P13631 1-454): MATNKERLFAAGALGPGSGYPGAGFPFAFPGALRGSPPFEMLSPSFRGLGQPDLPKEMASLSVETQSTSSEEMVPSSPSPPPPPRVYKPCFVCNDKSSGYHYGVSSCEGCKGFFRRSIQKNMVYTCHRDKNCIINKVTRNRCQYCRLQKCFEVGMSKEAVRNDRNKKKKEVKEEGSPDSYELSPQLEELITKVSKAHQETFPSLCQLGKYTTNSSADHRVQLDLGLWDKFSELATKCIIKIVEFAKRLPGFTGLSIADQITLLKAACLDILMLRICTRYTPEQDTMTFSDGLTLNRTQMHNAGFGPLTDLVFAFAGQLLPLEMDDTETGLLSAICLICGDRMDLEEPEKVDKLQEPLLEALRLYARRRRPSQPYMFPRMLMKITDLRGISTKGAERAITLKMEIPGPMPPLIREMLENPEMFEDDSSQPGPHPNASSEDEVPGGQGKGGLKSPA
The note with it: cited from earlier work.

The next data set has as its target T3, RARα (Homo sapiens, UniProt P10276).
T3 sequence (P10276 1-462): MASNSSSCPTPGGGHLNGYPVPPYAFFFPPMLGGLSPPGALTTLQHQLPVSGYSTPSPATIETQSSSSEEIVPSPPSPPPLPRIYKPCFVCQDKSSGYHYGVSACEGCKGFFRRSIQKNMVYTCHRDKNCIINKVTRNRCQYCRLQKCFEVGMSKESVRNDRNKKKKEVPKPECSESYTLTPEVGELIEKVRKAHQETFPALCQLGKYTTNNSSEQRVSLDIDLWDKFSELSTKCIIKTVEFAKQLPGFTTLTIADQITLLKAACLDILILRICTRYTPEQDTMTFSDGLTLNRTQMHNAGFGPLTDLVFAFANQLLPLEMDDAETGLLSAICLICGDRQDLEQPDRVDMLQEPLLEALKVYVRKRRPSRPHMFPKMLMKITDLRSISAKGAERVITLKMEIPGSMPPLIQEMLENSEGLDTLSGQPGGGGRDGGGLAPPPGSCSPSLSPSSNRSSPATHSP
Particulars: cited from earlier work.

Data set [3] relates to glutamine invertase of keratinocytes. Particulars: in vitro; cited from earlier work.
For another data set, the system named is acne. Particulars: animals; cited from earlier work.

Molecules are shown by their SMILES. Read-outs that look alike come from different tables or passages of the source.

As for `COc1ccc(-c2ccc3cc(C(=O)O)ccc3c2)cc1C12CC3CC(CC(C3)C1)C2` [Adapalene, 6-[3-(1-adamantyl)-4-methoxyphenyl]-2-naphthoic acid], in data set [1], the D50 result is given as “not more than 10 um”. Besides, in data set [1], the D90 entry is listed as “not more than 30 um”. In addition, the solubility result in data set [2] (in ethanol) is listed as “insoluble”; in data set [2] (in tetrahydrofuran), “slightly soluble”; in data set [2] (in water) it was “insoluble”. On RARPβ, the “binding to RARPβ” value is “mainly binds”. For the same molecule, the “binding to RARγ” value on RARγ is listed as “mainly binds”. Further, the “binding to RARα” value on RARα is reported as “weak binding”. The “inhibition of glutamine invertase of keratinocytes” value in data set [3] is listed as “inhibits”. In the data set with acne, the “effects in animal experiments” value is “acne dissolution and local anti-inflammatory effects”.

The values above are taken from patent US11058636B2, “Dispersion process of adapalene in a gel preparation” (ZHAOKE (GUANGZHOU) OPHTHALMIC DRUG COMPANY LIMITED, priority 2017, dated 2021).
